From patent US20100247517A1, “USE OF MNK INHIBITORS FOR THE TREATMENT OF ALZHEIMER'S DISEASE” (Boehringer Ingelheim Internationational GmbH, priority 2007, published 2010) come the findings set out here.

SMILES strings stand for the structures.

The target in one assay is T1, Human Mnk1-GST (Homo sapiens, UniProt Q9BUB5).
T1 construct: GST; made in house; host or cells: E. coli
Kind of assay: In vitro phosphorylation of human Tau by Mnk1 (kinase reaction, immunoblotting). It is filed as biochemical. As to the method: (§1) Kinase reaction: The kinase reactions were carried out in a total volume of 30 μl in reaction buffer (20 mM HEPES/KOH pH 7.4, 10 mM MgCl2, 2 mM DTT, 0.1% Pluronic F127, 0.01% BSA) containing 500 μM ATP, 0.5 μM human recombinant Tau (USBiological, T1040-10), inhibitors and kinases as indicated in figures. Human Mnk1-GST and Mnk2-GST was expressed in E. coli and purifies by Äkta Explorer 100 (Amersham) and pre-activated by human recombinant Erk2 (DeveloGen). Aliquots were stored at −80° C. up to use. Recombinant human PKA (Calbiochem, 539482) was used as positive control. All components of reactions were pre-diluted in reaction buffer. […] Samples were analysed by Immunoblotting.
(§2) Immunoblotting: Laemmli sample buffer (Biorad) was added to the stopped kinase reactions, subjected to SDS-PAGE and electroblotted on a nitrocellulose membrane (Schleicher & Schüll). The transferred membrane was incubated with NET-G buffer (50 mM Tris/HCl pH 7.5, 5 mM EDTA, 150 mM NaCl, 0.05% Triton X-100, 0.25% (w/v) gelatine) containing 1/1000 (v/v) anti Tau (phospho S262) or anti Tau (phospho S356) antibodies (Abcam, ab4856 and ab4857) over night at 4° C. After washing with NET-G buffer the membrane was treated with NET-G buffer containing 1/5000 (v/v) HRP-conjugated anti rabbit IgG antibody (Pierce) for 2 hours at room temperature.
(§3) For loading control membrane was stripped with stripping buffer (200 mM glycine/HCl pH 2.2, 0.1% SDS, 0.1% Tween 20) for 3 hours at room temperature. The membrane was then treated with NET-G buffer containing 1/4000 (v/v) anti Tau antibody (Abcam, ab19326). After washing with NET-G buffer the membrane was incubated with NET-G buffer containing 1/5000 (v/v) HRP-conjugated anti goat IgG antibody (DakoCytomation). Signals were detected with chemiluminescence using ECL Super Signal West Dura kit (Pierce).
In general terms: A western blot detects proteins with antibodies after separation by electrophoresis.

The target in the next assay is T2, Human Mnk2-GST (Homo sapiens, UniProt Q9HBH9).
T2 construct: GST; made in house; host or cells: E. coli
Kind of assay: In vitro phosphorylation of human Tau by Mnk2 (kinase reaction, immunoblotting). The assay is classed as biochemical. How it is done: as §1, §2, §3

Where [1] appears, read: results summary of FIG. 2 / FIG. 3.

T2 sequence (Q9HBH9 whole entry): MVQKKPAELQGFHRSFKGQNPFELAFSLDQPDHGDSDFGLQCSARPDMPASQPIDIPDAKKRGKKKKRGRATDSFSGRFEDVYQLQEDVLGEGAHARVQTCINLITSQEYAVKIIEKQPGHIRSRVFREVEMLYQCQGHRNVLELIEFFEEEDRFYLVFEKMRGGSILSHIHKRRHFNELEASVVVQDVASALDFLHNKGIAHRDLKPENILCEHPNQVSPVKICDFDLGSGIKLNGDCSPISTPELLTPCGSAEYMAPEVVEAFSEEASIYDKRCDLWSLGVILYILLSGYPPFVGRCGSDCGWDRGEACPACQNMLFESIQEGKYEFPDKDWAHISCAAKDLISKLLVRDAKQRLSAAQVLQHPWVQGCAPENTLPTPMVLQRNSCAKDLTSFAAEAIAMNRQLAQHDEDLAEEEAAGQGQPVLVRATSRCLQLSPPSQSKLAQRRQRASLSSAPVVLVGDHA
T1 sequence (Q9BUB5 whole entry): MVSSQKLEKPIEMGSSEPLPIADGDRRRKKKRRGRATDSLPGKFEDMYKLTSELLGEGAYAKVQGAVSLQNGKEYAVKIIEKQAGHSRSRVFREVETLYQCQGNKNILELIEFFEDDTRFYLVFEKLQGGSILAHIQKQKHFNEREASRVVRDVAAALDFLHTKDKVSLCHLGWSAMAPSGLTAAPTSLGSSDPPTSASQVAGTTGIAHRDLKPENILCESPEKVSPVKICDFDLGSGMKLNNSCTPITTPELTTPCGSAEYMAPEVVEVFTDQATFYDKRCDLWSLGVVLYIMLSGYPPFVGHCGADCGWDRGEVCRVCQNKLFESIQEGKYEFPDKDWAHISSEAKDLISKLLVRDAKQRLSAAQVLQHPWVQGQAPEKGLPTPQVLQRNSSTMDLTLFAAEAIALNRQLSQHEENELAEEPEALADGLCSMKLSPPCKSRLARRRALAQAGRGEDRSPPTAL

`CCOc1cc(C(N)=O)ccc1Nc1ncnc2scc(C)c12` [EDJ101401, 3-ethoxy-4-(5-methyl-thieno[2,3-D]pyrimidine-4-ylamino)-benzamide]: the “inhibition of in vitro phosphorylation of Ser262 in human Tau by Mnk1” value at Human Mnk1-GST (0.5 μM human Tau, 500 μM ATP, 120 min at 37° C., Erk2 (5 nM) used to activate Mnk, Western blot, FIG. 2A) is recorded as “in a dose dependent manner”. For the same compound, on Human Mnk1-GST (0.5 μM human Tau, 500 μM ATP, 120 min at 37° C., Erk2 (5 nM) used to activate Mnk, Western blot, FIG. 2B), the “inhibition of in vitro phosphorylation of Ser356 in human Tau by Mnk1” value is recorded as “in a dose dependent manner”. Also, the “inhibition of Mnk1-dependent tau phosphorylation” value against Human Mnk1-GST (setting [1]) is “dose-dependent inhibition”. For the same compound, the “inhibition of in vitro phosphorylation of Ser262 in human Tau by Mnk2” value against Human Mnk2-GST (0.5 μM human Tau, 500 μM ATP, 120 min at 37° C., Western blot, FIG. 2A / 3A) is given as “in a dose dependent manner”. For the same compound, at Human Mnk2-GST (0.5 μM human Tau, 500 μM ATP, 120 min at 37° C., Western blot, FIG. 2B / 3B), the “inhibition of in vitro phosphorylation of Ser356 in human Tau by Mnk2” value is “in a dose dependent manner”. Moreover, the “inhibition of Mnk2-dependent tau phosphorylation” value against Human Mnk2-GST (setting [1]) was “dose-dependent inhibition”.
